According to US10081628B2, “Apoptosis-inducing agents for the treatment of cancer and immune and autoimmune diseases” (AbbVie Inc., priority 2013, dated 2018):
Where two headings read alike, the source gives them in different places.

Legend:
[1] = biological target: GST-Bcl-2 (Homo sapiens, UniProt P10415); experiment: TR-FRET Bcl-2 binding assay (F-Bak peptide probe); details: GST-Bcl-2 1 nM, F-Bak peptide probe 100 nM, Tb-anti-GST 1 nM; Wang's equation; '<' = below limit of detection
Protocol: Determination of the utility of compounds of this invention as binders to and inhibitors of anti-apoptotic Bcl-2 proteins was performed using the Time Resolved-Fluorescence Resonance Energy Transfer (TR-FRET) Assay. Tb-anti-GST antibody was purchased from Invitrogen (Catalog No. PV4216).
Representative compounds were serially diluted in dimethyl sulfoxide (DMSO) starting at 50 μM (2× starting concentration; 10% DMSO) and 10 μL were transferred into a 384-well plate. The samples are then mixed on a shaker for 1 minute and incubated for an additional 3 hours at room temperature. For each assay, the probe/antibody and protein/probe/antibody were included on each assay plate as negative and positive controls, respectively. Fluorescence was measured on the Envision (Perkin Elmer) using a 340/35 nm excitation filter and 520/525 (F-Bak peptide) and 495/510 nm (Tb-labeled […] antibody) emission filters. Dissociation constants (Ki) are shown in TABLE 2 below and were determined using Wang's equation (Wang Z.-X., An Exact Mathematical Expression For Describing Competitive Binding Of Two Different Ligands To A Protein Molecule. FEBS Lett. 1995, 360:111-4).
The samples were then mixed on a shaker for 1 minute and incubated for an additional 3 hours at room temperature. For each assay, the probe/antibody and protein/probe/antibody were included on each assay plate as negative and positive controls, respectively. Fluorescence was measured on the Envision (Perkin Elmer) using a 340/35 nm excitation filter and 520/525 (F-Bak peptide) and 495/510 nm (Tb-labeled anti-Histidine antibody) emission filters.
Inhibition constants (Ki) for compounds were determined using Wang's equation (Wang Zx. An Exact Mathematical Expression For Describing Competitive Binding Of Two Different Ligands To A Protein Molecule. FEBS Lett. 1995, 360:111-4).
The inhibition constant (Ki) is the dissociation constant of an enzyme-inhibitor complex or a protein/small molecule complex, wherein the small molecule is inhibiting binding of one protein to another protein or peptide. So a large Ki value indicates a low binding affinity and a small Ki value indicates a high binding affinity. […] The compounds are therefore expected to have utility in treatment of diseases during which anti-apoptotic Bcl-2 protein is expressed. Biological Data

[2] = test system: RS4;11 cells; experiment: RS4;11 cell viability assay (CellTiter Glo); assay type: cell-based; details: 10% human serum, 48 hours
Text: The acute lymphoblastic leukemia (ALL) cell line RS4;11 was used as the primary human cell line to assess the cellular activity of Bcl-2 selective agents in vitro and their efficacy in vivo. Previous studies have shown by BH3 profiling, a mitochondrial assay that classifies blocks in the intrinsic apoptotic pathway, that RS4;11 cells were highly dependant on BCL-2 for survival and sensitive to the Bcl-2 family member inhibitor ABT-737 (Blood, 2008, Vol. 111, 2300-2309).
RS4;11 cells were cultured in RPMI-1640 supplemented with 2 mM L-glutamine, 10% FBS, 1 mM sodium pyruvate, 2 mM HEPES, 1% penicillin/streptomycin (Invitrogen), 4.5 g/L glucose and maintained at 37 C containing 5% CO2. To test for the cellular activity of compounds in vitro, cells were treated at 50,000 cells per well in 96-well microtiter plates in the presence of 10% human serum for 48 hours in a humidified chamber with 5% CO2. Cell cytotoxicity EC50 values were assessed using CellTiter Glo (Promega) according to the manufacturer's recommendations. The EC50 values were determined as a percentage of viable cells following treatment compared to the untreated control cells.

[3] = test system: lymphocytes; experiment: Lymphocyte reduction in C57BL/6 mice; assay type: in vivo; details: Mus musculus, ip
Protocol: An experiment was performed to evaluate the effect of Bcl-2 selective/Bcl-xL sparing compounds on immune cells and platelets, as evaluated in C57Bl/6 mice. Mice were treated four days with compounds (doses of 30 mg/kg, administered by intraperitoneal injection every day) and cell numbers were measured with a Cell Dyn hematology analyzer 24 hours after the first and last doses. Exposure of the compound (area under the curve) was calculated by using time points of 1, 6, 10 and 24 hours after the last dose.

[4] = 30 mg/kg intraperitoneal every day for four days, 24 hours after the last dose, read-out: Lymphocyte reduction % inh. day 4
[5] = 30 mg/kg intraperitoneal every day, 24 hours after the first dose, read-out: Lymphocyte reduction % inh. day 1

GST-Bcl-2, sequence (P10415 whole entry): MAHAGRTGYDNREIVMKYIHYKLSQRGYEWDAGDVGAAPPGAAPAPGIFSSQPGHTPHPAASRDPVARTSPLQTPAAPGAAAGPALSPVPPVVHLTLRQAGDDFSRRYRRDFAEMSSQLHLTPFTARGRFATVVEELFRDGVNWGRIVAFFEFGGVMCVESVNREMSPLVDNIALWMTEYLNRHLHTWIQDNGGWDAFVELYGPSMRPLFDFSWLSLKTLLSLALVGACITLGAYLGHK

Row | SMILES | Ki [1] | EC50 [2] | inhibition at 30 mg/kg [3, 4] | inhibition at 30 mg/kg [3, 5]
1 | CC1(C)CCC(CN2CCN(c3ccc(C(=O)NS(=O)(=O)c4ccc(NC[C@@H]5COCCO5)c([N+](=O)[O-])c4)c(Oc4cnc5[nH]ccc5c4)c3)CC2)=C(c2ccc(Cl)cc2)C1 [Example 1, 4-(4-{[2-(4-chlorophenyl)-4,4-dimethylcyclohex-1-en-1-yl]methyl}piperazin-1-yl)-N-[(4-{[(2R)-1,4-dioxan-2-ylmethyl]amino}-3-nitrophenyl)sulfonyl]-2-(1H-pyrrolo[2,3-b]pyridin-5-yloxy)benzamide] | < 0.1 nM | 5.3 nM | 41% | 41%
2 | C[C@@H](Nc1ccc(S(=O)(=O)NC(=O)c2ccc(N3CCN(CC4=C(c5ccc(Cl)cc5)CC(C)(C)CC4)CC3)cc2Oc2cnc3[nH]ccc3c2)cc1[N+](=O)[O-])C1CCOCC1 [Example 3, 4-(4-{[2-(4-chlorophenyl)-4,4-dimethylcyclohex-1-en-1-yl]methyl}piperazin-1-yl)-N-[(3-nitro-4-{[(1R)-1-(tetrahydro-2H-pyran-4-yl)ethyl]amino}phenyl)sulfonyl]-2-(1H-pyrrolo[2,3-b]pyridin-5-yloxy)benzamide] | < 0.1 nM | 150 nM | < 15% | < 15%
3 | CC1(C)CCC(CN2CCN(c3ccc(C(=O)NS(=O)(=O)c4ccc(NC[C@H]5CC[C@@]6(CCCO6)CC5)c([N+](=O)[O-])c4)c(Oc4cnc5[nH]ccc5c4)c3)CC2)=C(c2ccc(Cl)cc2)C1 [Example 5, 4-(4-{[2-(4-chlorophenyl)-4,4-dimethylcyclohex-1-en-1-yl]methyl}piperazin-1-yl)-N-[(3-nitro-4-{[(5R,8R)-1-oxaspiro[4.5]dec-8-ylmethyl]amino}phenyl)sulfonyl]-2-(1H-pyrrolo[2,3-b]pyridin-5-yloxy)benzamide] | < 0.1 nM | 5.2 nM | 45% | 47%
4 | CC1(C)CCC(CN2CCN(c3ccc(C(=O)NS(=O)(=O)c4ccc(NCC5(O)CCOCC5)c([N+](=O)[O-])c4)c(Oc4cnc5[nH]ccc5c4)c3)CC2)=C(c2ccc(Cl)cc2)C1 [Example 6, 4-(4-{[2-(4-chlorophenyl)-4,4-dimethylcyclohex-1-en-1-yl]methyl}piperazin-1-yl)-N-[(4-{[(4-hydroxytetrahydro-2H-pyran-4-yl)methyl]amino}-3-nitrophenyl)sulfonyl]-2-(1H-pyrrolo[2,3-b]pyridin-5-yloxy)benzamide] | < 0.1 nM | 7.6 nM | 24% | < 15%
5 | CC1(C)CCC(CN2CCN(c3ccc(C(=O)NS(=O)(=O)c4ccc(NC[C@H]5COCCO5)c([N+](=O)[O-])c4)c(Oc4cnc5[nH]ccc5c4)c3)CC2)=C(c2ccc(Cl)cc2)C1 [Example 9, 4-(4-{[2-(4-chlorophenyl)-4,4-dimethylcyclohex-1-en-1-yl]methyl}piperazin-1-yl)-N-[(4-{[(2S)-1,4-dioxan-2-ylmethyl]amino}-3-nitrophenyl)sulfonyl]-2-(1H-pyrrolo[2,3-b]pyridin-5-yloxy)benzamide] | < 0.1 nM | 2.2 nM | 58% | 69%
6 | CC1(C)CCC(CN2CCN(c3ccc(C(=O)NS(=O)(=O)c4ccc(NCC5(CO)CCOCC5)c([N+](=O)[O-])c4)c(Oc4cnc5[nH]ccc5c4)c3)CC2)=C(c2ccc(Cl)cc2)C1 [Example 10, 4-(4-{[2-(4-chlorophenyl)-4,4-dimethylcyclohex-1-en-1-yl]methyl}piperazin-1-yl)-N-{[4-({[4-(hydroxymethyl)tetrahydro-2H-pyran-4-yl]methyl}amino)-3-nitrophenyl]sulfonyl}-2-(1H-pyrrolo[2,3-b]pyridin-5-yloxy)benzamide] | < 0.1 nM | 8.1 nM | < 15% | < 15%
7 | CC(C)(O)CCNc1ccc(S(=O)(=O)NC(=O)c2ccc(N3CCN(CC4=C(c5ccc(Cl)cc5)CC(C)(C)CC4)CC3)cc2Oc2cnc3[nH]ccc3c2)cc1[N+](=O)[O-] [Example 12, 4-(4-{[2-(4-chlorophenyl)-4,4-dimethylcyclohex-1-en-1-yl]methyl}piperazin-1-yl)-N-({4-[(3-hydroxy-3-methylbutyl)amino]-3-nitrophenyl}sulfonyl)-2-(1H-pyrrolo[2,3-b]pyridin-5-yloxy)benzamide] | < 0.1 nM | 30 nM | 27% | 41%
8 | CC1(C)CCC(CN2CCN(c3ccc(C(=O)NS(=O)(=O)c4ccc(NC[C@@H]5[C@H]6COC[C@@H]56)c([N+](=O)[O-])c4)c(Oc4cnc5[nH]ccc5c4)c3)CC2)=C(c2ccc(Cl)cc2)C1 [Example 14, 4-(4-{[2-(4-chlorophenyl)-4,4-dimethylcyclohex-1-en-1-yl]methyl}piperazin-1-yl)-N-[(3-nitro-4-{[(1R,5S,6S)-3-oxabicyclo[3.1.0]hex-6-ylmethyl]amino}phenyl)sulfonyl]-2-(1H-pyrrolo[2,3-b]pyridin-5-yloxy)benzamide] | < 0.1 nM | 10 nM | 54% | 61%
9 | CC1(C)CCC(CN2CCN(c3ccc(C(=O)NS(=O)(=O)c4ccc(NCC5(O)COC5)c([N+](=O)[O-])c4)c(Oc4cnc5[nH]ccc5c4)c3)CC2)=C(c2ccc(Cl)cc2)C1 [Example 15, 4-(4-{[2-(4-chlorophenyl)-4,4-dimethylcyclohex-1-en-1-yl]methyl}piperazin-1-yl)-N-[(4-{[(3-hydroxyoxetan-3-yl)methyl]amino}-3-nitrophenyl)sulfonyl]-2-(1H-pyrrolo[2,3-b]pyridin-5-yloxy)benzamide] | < 0.1 nM | 9.3 nM | < 15% | < 15%
10 | CC1(C)CCC(CN2CCN(c3ccc(C(=O)NS(=O)(=O)c4ccc(NN5CCOCC5)c([N+](=O)[O-])c4)c(Oc4cnc5[nH]ccc5c4)c3)CC2)=C(c2ccc(Cl)cc2)C1 [Example 16, 4-(4-{[2-(4-chlorophenyl)-4,4-dimethylcyclohex-1-en-1-yl]methyl}piperazin-1-yl)-N-{[4-(morpholin-4-ylamino)-3-nitrophenyl]sulfonyl}-2-(1H-pyrrolo[2,3-b]pyridin-5-yloxy)benzamide] | < 0.1 nM | 67 nM | < 15% | < 15%
11 | CC1(C)CCC(CN2CCN(c3ccc(C(=O)NS(=O)(=O)c4ccc(NNC5CCOCC5)c([N+](=O)[O-])c4)c(Oc4cnc5[nH]ccc5c4)c3)CC2)=C(c2ccc(Cl)cc2)C1 [Example 18, 4-(4-{[2-(4-chlorophenyl)-4,4-dimethylcyclohex-1-en-1-yl]methyl}piperazin-1-yl)-N-({3-nitro-4-[2-(tetrahydro-2H-pyran-4-yl)hydrazinyl]phenyl}sulfonyl)-2-(1H-pyrrolo[2,3-b]pyridin-5-yloxy)benzamide] | < 0.1 nM | 47 nM | 25% | < 15%
12 | CC1(C)CCC(CN2CCN(c3ccc(C(=O)NS(=O)(=O)c4ccc(NCC5CCOCC5)c([N+](=O)[O-])c4)c(Oc4cnc5[nH]ccc5c4)c3)CC2)=C(c2ccc(Cl)c(Cl)c2)C1 [Example 53, 4-(4-{[2-(3,4-dichlorophenyl)-4,4-dimethylcyclohex-1-en-1-yl]methyl}piperazin-1-yl)-N-({3-nitro-4-[(tetrahydro-2H-pyran-4-ylmethyl)amino]phenyl}sulfonyl)-2-(1H-pyrrolo[2,3-b]pyridin-5-yloxy)benzamide] | 0.2 nM | 46 nM |  | 
